Results as given in US10464911B2, “1,3,4-oxadiazole sulfamide derivative compounds as histone deacetylase 6 inhibitor, and the pharmaceutical composition comprising the same” (Chong Kun Dang Pharmaceutical Corp., priority 2015, dated 2019).

Molecular target: human recombinant HDAC6 (Homo sapiens (Human), UniProt Q9UBN7)
Assay: HDAC6 enzyme activity inhibition assay (HDAC Fluorimetric Drug Discovery Kit)
Assay type: biochemical
Conditions: for HDAC6 selectivity (fold): HDAC6 versus HDAC1; for IC50: human recombinant HDAC6, same protocol as HDAC1 test
Protocol: In order to examine the HDAC6 selectivity of the compounds of formula I of the present invention by HDAC1 and HDAC6 enzymatic activity inhibition assays, an experiment was performed using a conventional substance as a control.
HDAC enzyme activity was measured using a HDAC Fluorimetric Drug Discovery Kit (BML-AK511, 516, Enzo Life Science). For the HDAC1 enzyme activity test, human recombinant HDAC1 (BML-SE456) was used as an enzyme source, and Fluor de Lys®-“SIRT1 (BNL-KI177) was used as a substrate. A 5-fold dilution of the compound was seeded into a 96-well plate, and then 0.3 μg of the enzyme and 10 μM of the substrate were added to each well of the plate and allowed to react at 30 for 60 minutes. Then, Fluor de Lys®-Developer II (BML-KI176) was added thereto and allowed to react for 30 minutes, after which the fluorescence value (Ex 360, Em 460) was measured using a multi-plate reader (Flexstation 3, Molecular Device). The HDAC6 enzyme was tested using human recombinant HDAC6 (382180) (Calbiochem) according to the same protocol as the HDAC1 enzyme activity test method. Based on the resulting values, each IC50 value was calculated using GraphPad Prism4.0 program.

Sequence of human recombinant HDAC6 (Q9UBN7 whole entry): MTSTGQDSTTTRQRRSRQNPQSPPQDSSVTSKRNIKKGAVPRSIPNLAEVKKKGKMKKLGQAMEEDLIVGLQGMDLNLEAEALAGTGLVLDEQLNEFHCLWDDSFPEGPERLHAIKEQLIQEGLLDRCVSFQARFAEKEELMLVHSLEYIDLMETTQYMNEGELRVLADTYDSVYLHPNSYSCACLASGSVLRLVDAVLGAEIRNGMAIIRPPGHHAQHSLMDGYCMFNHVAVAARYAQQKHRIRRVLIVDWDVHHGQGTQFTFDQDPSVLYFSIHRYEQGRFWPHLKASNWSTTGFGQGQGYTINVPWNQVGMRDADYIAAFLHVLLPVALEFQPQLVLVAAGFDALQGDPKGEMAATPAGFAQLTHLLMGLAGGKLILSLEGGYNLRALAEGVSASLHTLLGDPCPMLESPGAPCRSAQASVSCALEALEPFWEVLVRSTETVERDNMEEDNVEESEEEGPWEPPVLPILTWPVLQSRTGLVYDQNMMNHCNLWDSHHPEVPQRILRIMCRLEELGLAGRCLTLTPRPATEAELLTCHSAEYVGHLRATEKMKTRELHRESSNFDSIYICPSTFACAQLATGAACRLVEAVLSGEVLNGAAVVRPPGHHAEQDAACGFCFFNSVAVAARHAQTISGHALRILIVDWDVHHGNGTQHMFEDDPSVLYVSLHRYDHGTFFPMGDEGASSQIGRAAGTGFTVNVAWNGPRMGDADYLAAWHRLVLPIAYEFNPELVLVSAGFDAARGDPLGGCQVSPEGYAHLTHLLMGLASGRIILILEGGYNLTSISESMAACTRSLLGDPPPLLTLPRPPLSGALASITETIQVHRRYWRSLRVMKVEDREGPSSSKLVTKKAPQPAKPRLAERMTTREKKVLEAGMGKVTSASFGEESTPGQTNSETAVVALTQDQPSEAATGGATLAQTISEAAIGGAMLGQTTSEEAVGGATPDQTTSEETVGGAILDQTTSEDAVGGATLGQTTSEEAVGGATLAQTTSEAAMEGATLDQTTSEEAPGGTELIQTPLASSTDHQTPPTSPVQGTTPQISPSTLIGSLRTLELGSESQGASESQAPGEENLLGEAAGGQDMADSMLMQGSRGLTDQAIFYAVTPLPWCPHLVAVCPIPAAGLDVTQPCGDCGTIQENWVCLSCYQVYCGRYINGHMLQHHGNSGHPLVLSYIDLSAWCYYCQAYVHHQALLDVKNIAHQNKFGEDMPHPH

| SMILES | HDAC6 selectivity (fold) | IC50 |
| --- | --- | --- |
| CS(=O)(=O)N1CCN(S(=O)(=O)N(Cc2ccc(-c3nnc(C(F)(F)F)o3)cc2F)c2ccccc2)CC1 [Compound 11297, N-(2-fluoro-4-(5-(trifluoromethyl)-1,3,4-oxadiazol-2-yl)benzyl)-4-(methylsulfonyl)-N-phenylpiperazine-1-sulfonamide] | 805 fold | 0.124 µM |
| CC(C)C(=O)N1CCN(S(=O)(=O)N(Cc2ccc(-c3nnc(C(F)F)o3)cc2F)c2ccccc2)CC1 [Compound 11304, N-(4-(5-(difluoromethyl)-1,3,4-oxadiazol-2-yl)-2-fluorobenzyl)-4-isobutyryl-N-phenylpiperazine-1-sulfonamide] | 1912 fold | 0.052 µM |
| O=S(=O)(N1CCN(C2CCC2)CC1)N(Cc1ccc(-c2nnc(C(F)F)o2)cc1)c1ccc(F)c(Cl)c1 [Compound 11652, N-(3-chloro-4-fluorophenyl)-4-cyclobutyl-N-(4-(5-(difluoromethyl)-1,3,4-oxadiazol-2-yl)benzyl)piperazine-1-sulfonamide] | 422 fold | 0.237 µM |
| CC(C)N1CCN(S(=O)(=O)N(Cc2ccc(-c3nnc(C(F)F)o3)cc2)c2ccccc2)CC1 [Compound 11673, N-(4-(5-(difluoromethyl)-1,3,4-oxadiazol-2-yl)benzyl)-4-isopropyl-N-phenylpiperazine-1-sulfonamide] | 1351 fold | 0.074 µM |
| Cl.O=S(=O)(N1CCNCC1)N(Cc1ccc(-c2nnc(C(F)F)o2)cc1F)c1cccc(F)c1 [Compound 11313, N-(4-(5-(difluoromethyl)-1,3,4-oxadiazol-2-yl)-2-fluorobenzyl)-N-(3-fluorophenyl)piperazine-1-sulfonamide Hydrochloride] | 4246 fold | 0.024 µM |
| CC(=O)N1[C@H](C)CN(S(=O)(=O)N(Cc2ccc(-c3nnc(C(F)F)o3)cc2)c2ccccc2)C[C@@H]1C [Compound 11641, (3S,5R)-4-acetyl-N-(4-(5-(difluoromethyl)-1,3,4-oxadiazol-2-yl)benzyl)-3,5-dimethyl-N-phenylpiperazine-1-sulfonamide] | 2989 fold | 0.033 µM |
| O=S(=O)(N1CCN(C2COC2)CC1)N(Cc1ccc(-c2nnc(C(F)F)o2)cn1)c1ccc(F)c(Cl)c1 [Compound 11672, N-(3-chloro-4-fluorophenyl)-N-((5-(5-(difluoromethyl)-1,3,4-oxadiazol-2-yl)pyridin-2-yl)methyl)-4-(oxetan-3-yl)piperazine-1-sulfonamide] | 7142 fold | 0.014 µM |
| CCC(=O)N1CCN(S(=O)(=O)N(Cc2ccc(-c3nnc(C(F)F)o3)cc2F)c2ccccc2)CC1 [Compound 11303, N-(4-(5-(difluoromethyl)-1,3,4-oxadiazol-2-yl)-2-fluorobenzyl)-N-phenyl-4-propionylpiperazine-1-sulfonamide] | 3187 fold | 0.031 µM |
| O=S(=O)(N1CCN(C2COC2)CC1)N(Cc1ccc(-c2nnc(C(F)F)o2)cc1F)c1ccccc1 [Compound 11379, N-(4-(5-(difluoromethyl)-1,3,4-oxadiazol-2-yl)-2-fluorobenzyl)-4-(oxetan-3-yl)-N-phenylpiperazine-1-sulfonamide] | 3846 fold | 0.026 µM |
| O=S(=O)(N1CCN(C2COC2)CC1)N(Cc1ccc(-c2nnc(C(F)F)o2)cn1)c1ccccc1 [Compound 11574, N-((5-(5-(difluoromethyl)-1,3,4-oxadiazol-2-yl)pyridin-2-yl)methyl)-4-(oxetan-3-yl)-N-phenylpiperazine-1-sulfonamide] | 6250 fold | 0.016 µM |
| CC(C)N1CCN(S(=O)(=O)N(Cc2ccc(-c3nnc(C(F)F)o3)cc2)c2ccc(F)c(Cl)c2)CC1 [Compound 11651, N-(3-chloro-4-fluorophenyl)-N-(4-(5-(difluoromethyl)-1,3,4-oxadiazol-2-yl)benzyl)-4-iso propylpiperazine-1-sulfonamide] | 207 fold | 0.481 µM |

Next, values leading:

| HDAC6 selectivity (fold) | IC50 | SMILES |
| --- | --- | --- |
| 4761 fold | 0.021 µM | O=S(=O)(N1CCN(C2COC2)CC1)N(Cc1ccc(-c2nnc(C(F)F)o2)cn1)c1cccc(Cl)c1 [Compound 11832, N-(3-chlorophenyl)-N-((5-(5-(difluoromethyl)-1,3,4-oxadiazol-2-yl)pyridin-2-yl)methyl)-4-(oxetan-3-yl)piperazine-1-sulfonamide] |
| 1923 fold | 0.052 µM | Cc1cccc(N(Cc2ccc(-c3nnc(C(F)F)o3)cn2)S(=O)(=O)N2CCN(C)[C@@H](C)C2)c1 [Compound 11827, (S)—N-((5-(5-(difluoromethyl)-1,3,4-oxadiazol-2-yl)pyridin-2-yl)methyl)-3,4-dimethyl-N-(m-tolyl)piperazine-1-sulfonamide] |
| 2000 fold | 0.05 µM | Cc1cccc(N(Cc2ccc(-c3nnc(C(F)F)o3)cn2)S(=O)(=O)N2CCN(C3COC3)[C@H](C)C2)c1 [Compound 11824, (R)—N-((5-(5-(difluoromethyl)-1,3,4-oxadiazol-2-yl)pyridin-2-yl)methyl)-3-methyl-4-(oxetan-3-yl)-N-(m-tolyl)piperazine-1-sulfonamide] |
| 1041 fold | 0.096 µM | Cl.O=S(=O)(N1CCC2(CC1)CNC2)N(Cc1ccc(-c2nnc(C(F)F)o2)cc1)c1ccccc1 [Compound 11787, N-(4-(5-(difluoromethyl)-1,3,4-oxadiazol-2-yl)benzyl)-N-phenyl-2,7-diazaspiro[3.5]nonane-7-sulfonamide Hydrochloride] |
| 2040 fold | 0.049 µM | Cc1cccc(N(Cc2ccc(-c3nnc(C(F)F)o3)cn2)S(=O)(=O)N2CCN(C3COC3)CC2)c1 [Compound 11833, N-((5-(5-(difluoromethyl)-1,3,4-oxadiazol-2-yl)pyridin-2-yl)methyl)-4-(oxetan-3-yl)-N-(m-tolyl)piperazine-1-sulfonamide] |
| 751 fold | 0.133 µM | O=S(=O)(N1CCN(C2CCC2)CC1)N(Cc1ccc(-c2nnc(C(F)F)o2)cc1)c1ccccc1 [Compound 11674, 4-cyclobutyl-N-(4-(5-(difluoromethyl)-1,3,4-oxadiazol-2-yl)benzyl)-N-phenylpiperazine-1-sulfonamide] |
| 2439 fold | 0.041 µM | C[C@@H]1CN(S(=O)(=O)N(Cc2ccc(-c3nnc(C(F)F)o3)cn2)c2cccc(Cl)c2)CCN1C1COC1 [Compound 11826, (R)—N-(3-chlorophenyl)-N-((5-(5-(difluoromethyl)-1,3,4-oxadiazol-2-yl)pyridin-2-yl)methyl)-3-methyl-4-(oxetan-3-yl)piperazine-1-sulfonamide] |
| 616 fold | 0.162 µM | CN(CCN1CCN(S(C)(=O)=O)CC1)S(=O)(=O)N(Cc1ccc(-c2nnc(C(F)F)o2)cc1)c1ccccc1 [Compound 11714, 2-((4-(((N-methyl-N-(2-(4-(methylsulfonyl)piperazin-1-yl)ethyl)sulfamoyl)(phenyl)amino)methyl))phenyl)-5-(difluoromethyl)-1,3,4-oxadiazole] |
